Data reported in patent US11220690B2, “Formulation” (ATLANTIC PHARMACEUTICALS (HOLDINGS) LTD, priority 2017, dated 2022).

Key:
[1] = target: T1, TLR9 (Homo sapiens, UniProt Q9NR96); experiment: Inhibition of TLR-9 activated by E. coli genomic DNA; assay type: cell-based; conditions: E. coli genomic DNA as activator of TLR-9
T1 sequence (Q9NR96 26-1032): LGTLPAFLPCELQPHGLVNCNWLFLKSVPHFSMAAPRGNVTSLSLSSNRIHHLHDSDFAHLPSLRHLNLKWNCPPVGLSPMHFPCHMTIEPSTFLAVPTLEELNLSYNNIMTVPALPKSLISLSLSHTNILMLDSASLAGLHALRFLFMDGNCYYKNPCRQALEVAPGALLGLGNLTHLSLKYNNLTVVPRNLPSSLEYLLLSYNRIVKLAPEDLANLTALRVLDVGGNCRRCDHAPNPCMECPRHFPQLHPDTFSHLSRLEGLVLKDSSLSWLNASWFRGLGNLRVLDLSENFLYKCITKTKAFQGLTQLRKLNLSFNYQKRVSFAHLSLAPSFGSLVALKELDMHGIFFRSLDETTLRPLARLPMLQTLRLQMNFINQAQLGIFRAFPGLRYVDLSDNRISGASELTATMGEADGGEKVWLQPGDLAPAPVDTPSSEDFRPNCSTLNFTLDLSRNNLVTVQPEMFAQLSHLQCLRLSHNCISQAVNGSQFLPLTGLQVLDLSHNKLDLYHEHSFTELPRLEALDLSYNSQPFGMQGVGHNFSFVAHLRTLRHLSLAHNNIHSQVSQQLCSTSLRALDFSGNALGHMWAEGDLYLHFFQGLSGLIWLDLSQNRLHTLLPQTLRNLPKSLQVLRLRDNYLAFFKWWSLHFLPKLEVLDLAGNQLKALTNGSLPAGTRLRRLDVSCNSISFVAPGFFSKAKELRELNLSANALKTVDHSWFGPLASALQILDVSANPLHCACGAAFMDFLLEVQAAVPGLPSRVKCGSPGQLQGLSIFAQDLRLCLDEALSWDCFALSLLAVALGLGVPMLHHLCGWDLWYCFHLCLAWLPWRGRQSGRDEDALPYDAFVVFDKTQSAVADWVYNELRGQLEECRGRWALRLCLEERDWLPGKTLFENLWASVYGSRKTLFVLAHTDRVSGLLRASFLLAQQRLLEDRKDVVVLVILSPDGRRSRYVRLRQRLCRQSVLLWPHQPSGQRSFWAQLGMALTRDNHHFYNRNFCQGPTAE
Source text: While the data of FIG. 4 indicate that SEQ ID NO:1 is more likely to form a homodimer than a heterodimer with ODN2006, additional experiments tested the antagonist activity of SEQ ID NO:1 in the presence of E. coli genomic DNA as the activator.

[2] = target: T1, TLR9; experiment: TLR9 activation (agonist) screen, TLR9/NF-kB luciferase reporter HEK 293 cell line; assay type: cell-based; parameters: host or cells: HEK 293 (TLR9/NF-kB luciferase reporter line); conditions: up to concentrations as high as 100 uM, 16 h treatment
Protocol: […] Briefly, the TLR9/NF-kB luciferase reporter HEK 293 cell line (Abeomics, San Diego, Calif.) was plated in 96-well white solid plates at 5×10^4 cells per well for 16 h. […] Luciferase activity was then measured and analyzed.

[3] = test system: pigmented C57BL/6N mice; experiment: Murine model of dry eye by scopolamine administration; assay type: in vivo, Mouse; conditions: for Corneal fluorescein staining score (mean ± SD): 5 μL in both eyes, one dose per day
Source text: In a model of mice, the application of transdermal scopolamine patches to the mid-tail is used to reduce aqueous tear production and thus mimic lacrimal gland insufficiency. The function of scopolamine is to induce a pharmacologic blockade of cholinergic receptors in the lacrimal gland and therefore to decrease aqueous production. The desiccation is amplified by adding environmental stress Animals are exposed to a low-humidity environment and constant airflow.
• Species: Mouse. • Strain: C57BL/6N (pigmented). • Age: Approximately 6-7 weeks (at the first day of induction). • Number/sex: 55 females (study 40; reserve 15).
Mice were treated with transdermal scopolamine administration (0.5 mg/72 h; Scopoderm TTS®). The transdermal scopolamine patch was wrapped near the tail base of the mouse, secured with cellophane tape. Patches were reapplied every 48 hours.
Mice were randomized into 4 groups of 10 animals. The study was divided into 2 experimental sets with 5 animals of each group represented.
All test items, control items and comparator item were instilled in both eyes (5 μL per administration), using a micropipette.
Tear production and corneal defects were assessed at baseline, on Days 3, 6 and 10 using phenol red thread (PRT) and corneal fluorescence staining (CFS), respectively, for each animal of the 4 groups.
A) Measurement of Aqueous Tear Production PRT Test. • Tear production was measured with the PRT test (Zone-Quick, FCI-Ophthalmics) on both eyes, before administration on Day 3 and at least one hour after the second treatment for the other days of the study. The thread was placed in the lateral cantus of the lateral conjunctival fornix for 30 seconds. The thread wet by tears would turn red, indicated aqueous tear production.
B) Corneal Fluorescein Staining (CFS) • At the different time points the measurement was performed before administration on Day 3 and at least one hour after the second treatment for the other days of the study. The eyes of the animals from all groups were examined by slit-lamp observation using blue light after 0.5% fluorescein eye drop instillation (0.5 μL). Punctuate staining was recorded with the standardized National Eye Institute (NEI) grading system giving a 0-3 score to each of the 5 areas in which the corneas were divided. Results: Animal Behaviour and Body Weights

[4] = target: T1, TLR9; experiment: Inhibition of TLR9-mediated NF-kB induction activated by CpG ODN2006, luciferase reporter HEK 293 cell line; assay type: cell-based; parameters: host or cells: HEK 293 (TLR9/NF-kB luciferase reporter line)
Protocol: SEQ ID NO:1 was next screened for dose responsive inhibition activity to determine the IC50 against TLR9-mediated NF-kB induction at seven different doses (0.1, 1, 5, 10, 25, 50 and 100 μM) in triplicate. Briefly, the TLR9/NF-kB luciferase reporter HEK 293 cell line was plated in 96-well white solid plates at 5×10^4 cells per well for 16 h. Cells were pretreated with different doses of SEQ ID NO:1 in triplicate for 1 h. Cells were then treated with 20 ug/ml of CpG ODN2006 to activate TLR9. After 16 h, luciferase activity was measured and analyzed.

[5] = Circular Dichroism (CD) spectroscopy, thermal stability of secondary structure; assay type: physicochemical
Source text: SEQ ID NO:1 was therefore subjected to Circular Dichroism (CD) spectroscopy to gather information about the possible secondary structure. CD of DNA can be utilized to detect all 3 major forms of duplex structure (B, A and Z) and is sensitive to conditions that disrupt the structure such a heating. Of interest was the stability of any secondary structure detected at or above physiologic temperatures. Shown in FIG. 6 is the CD spectra of sample SEQ ID NO:1 in ddH20 at 4 C.
Additional thermal denaturation of the putative duplex was also studied in the presence of Na^+ at concentrations of 50 mM and 150 mM. Sodium fluoride was used as Cl^− ions interfere with the CD spectra in this UV region.
Additional experiments were conducted to test the influence of Mg^++ and polyamines on the stability of the structure.

**Q.** Which results are given for “alicaforsen (GCCCAAGCTGGCATCCGTCA; chemistry not given here; listed as Homo sapiens) [SEQ ID NO:1]”?
**A.** antagonist activity in the presence of E. coli genomic DNA as the activator [1]: remained antagonistic; agonist activity (TLR9 activation) [2]: devoid of agonist activity; Corneal fluorescein staining score (mean ± SD) ([3]; Day 6, alicaforsen 1 mM): 10.5 ± 2.6; Corneal fluorescein staining score (mean ± SD) ([3]; Day 6, alicaforsen 10 mM): 10.8 ± 2.0; Corneal fluorescein staining score (mean ± SD) ([3]; Day 10, alicaforsen 1 mM, listed as ALICAFORSEN): 9.3 ± 3.1; Corneal fluorescein staining score (mean ± SD) ([3]; Day 10, alicaforsen 1 mM, listed as alicaforsen): lower than the Vehicle group; Corneal fluorescein staining score (mean ± SD) ([3]; Day 10, alicaforsen 10 mM, listed as ALICAFORSEN): 9.7 ± 2.2; Corneal fluorescein staining score (mean ± SD) ([3]; Day 10, alicaforsen 10 mM, listed as alicaforsen): lower than the Vehicle group; clinical tolerability ([3]; multiple topical administrations, 1 mM and 10 mM): clinically well tolerated; TLR-9 antagonist activity ([4]; ODN2006 as activator): antagonist of TLR-9; concentrations required for TLR-9 antagonism compared with inhibition of ICAM-1 expression ([4]; comparative dose responses, FIG. 3): requires higher concentrations than the inhibition of ICAM-1 expression; intensity of the 190 nm peak after cooling back ([5]; 50 and 150 mM sodium, samples cooled back to 20° C. after heating): returned to pre-heated levels; structure retained (intensity of the 190 nm peak) on heating ([5]; both 50 and 150 mM sodium (sodium fluoride), to 40° C.): at least 50%; loss of signal strength of positive CD band at 190 nm ([5]; in ddH20, heating to 80° C.): > 85%; effect of spermine on secondary structure (CD spectra) ([5]; spermine at 5 mM in the presence of 50 mM Na+): completely abolished the secondary structure
